The values that follow come from publication PMC8380656, “The structure and flexibility analysis of the Arabidopsis synaptotagmin 1 reveal the basis of its regulation at membrane contact sites” (Life Science Alliance, 2021).

Sequences and labels used below:
T1: SYT1C2A (Arabidopsis thaliana, UniProt Q9SKR2)
T1 construct: gene SYT1; C2A domain, residues K253-E397; pGEX6P1, GST tag cleaved with PreScission protease; expressed in E. coli Rosetta 2 (DE3) pLysS
T1 sequence (Q9SKR2 253-397): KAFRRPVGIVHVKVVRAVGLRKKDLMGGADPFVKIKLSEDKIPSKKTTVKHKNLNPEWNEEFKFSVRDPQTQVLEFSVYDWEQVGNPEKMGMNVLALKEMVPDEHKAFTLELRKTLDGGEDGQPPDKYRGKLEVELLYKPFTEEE

B1: SYT1-SMPC2A (Arabidopsis synaptotagmin 1, SMP and C2A domains, residues N34-E397) (domain or fragment, UniProt Q9SKR2 34-397, looked up)
chain: NDVKDPEIRSIADQDPKAMLRMLPEIPLWVKNPDFDRVDWINRFLEYMWPYLDKAICKTAKNIAKPIIEEQIPKYKIDSVEFETLTLGSLPPTFQGMKVYLTDEKELIMEPCLKWAANPNILVAIKAFGLKATVQVVDLQVFAQPRITLKPLVPSFPCFANIYVSLMEKPHVDFGLKLGGADLMSIPGLYRFVQEQIKDQVANMYLWPKTLVVPILDPAKAFRRPVGIVHVKVVRAVGLRKKDLMGGADPFVKIKLSEDKIPSKKTTVKHKNLNPEWNEEFKFSVRDPQTQVLEFSVYDWEQVGNPEKMGMNVLALKEMVPDEHKAFTLELRKTLDGGEDGQPPDKYRGKLEVELLYKPFTEEE
notes: Expressed from pGEX6P1; also called SMP2C2A; source: E. coli Rosetta 2 (DE3) pLysS, purified (Glutathione Sepharose 4B, GST cleaved with Precission protease, Superdex 200)

One data set addresses T1, SYT1C2A. The data set can be described thus: thermal shift, label-free nanoDSF (Tycho NT.[…]). Conditions: 58 μM ligand, 5.8 μM protein, 20 μM EGTA, Tris-HCl pH 8.0; absolute inflexion temperature, unbound control 57.4 ± 0.5; polybasic site. Format: binding. In general terms: In DSF a fluorescence change marks the thermal transition of the protein.
Turning to `O=P(O)(O)O[C@H]1[C@H](O)[C@@H](O)[C@H](OP(=O)(O)O)[C@@H](O)[C@H]1O` [IP2, inositol 1,4-biphosphate], the SYT1C2A is 59.4 ± 0.2 °C.
Still for that read-out and setting: the value for `O=P(O)(O)O[C@@H]1[C@H](O)[C@H](O)[C@@H](OP(=O)(O)O)[C@H](OP(=O)(O)O)[C@H]1O` [IP3, inositol 1,4,5-trisphosphate] was 62.60 ± 0.05 °C.
Same read-out and setting: the result for `O=P(O)(O)O[C@H]1[C@H](O)[C@@H](O)[C@H](OP(=O)(O)O)[C@@H](OP(=O)(O)O)[C@H]1O` [IP(1,3,4), inositol 1,3,4-trisphosphate] reads 64.2 ± 0.1 °C; that for `O=P(O)(O)O[C@@H]1[C@@H](OP(=O)(O)O)[C@H](OP(=O)(O)O)[C@@H](O)[C@@H](O)[C@H]1OP(=O)(O)O` [IP(1,4,5,6), inositol 1,4,5,6-tetraphosphate], 62.6 ± 0.2 °C; that for `O=P(O)(O)O[C@H]1[C@H](OP(=O)(O)O)[C@@H](OP(=O)(O)O)[C@@H](O)[C@@H](O)[C@@H]1OP(=O)(O)O` [IP(3,4,5,6), inositol 3,4,5,6-tetraphosphate], 65.2 ± 0.4 °C.

The next data set concerns the molecule itself. The data set can be described thus: SAXS (SEC-SAXS); 45 ul of SYT1SMPC2A at 6.6 mg ml^-1 injected onto Superdex 200 increase 3.2/300 at 20°C; 20 mM Tris pH 8, 100 mM NaCl, 5% glycerol, 2 mM DTT; molecular mass from the Porod volume.
Conditions: not given
(Size exclusion chromatography separates by hydrodynamic size, large species first.)
On to B1, for which the stoichiometry N (as a rule, a count of units in the complex or per binding partner) was 2.
